Columns and labels:
[1] = system: PI3K/AKT activity (AKT phosphorylation); assay: PI3K/AKT/mTOR pathway inhibitory activity: level of AKT phosphorylation in CEM cells over time; assay type: cell-based, human; conditions: 10 μM, FIGS. 7 and 8
Experimental: The CEM cell was incubated with 10 μM of each mentioned compound of formula (I) for the indicated times and then cells were lysed and 100 μg of protein was loaded per line and resolved by SDS-PAGE. The levels of AKT phosphorylation (hallmark of PI3K activation) and total AKT (loading control) were analyzed by Western blot and the amount of AKT phosphorylation relative to the total amount of protein AKT was quantified by densitometric analysis, the intensity of each band was scanned and the level of AKT phosphorylation was reported to the amount of whole AKT and the percentage of phosphorylated-AKT was depicted.
(§1) Immunoblots Excepted for immunoprecipitation experiments in which cells were lyzed with RIPA buffer, cells were lyzed for 30 min at 4° C. in Lysis buffer (25 mM HEPES pH 7.4, 1% v/v Triton X-100, 150 mM NaCl, 2 mM EGTA supplemented with a mix of protease inhibitors). Protein concentration was determined by the bicinchoninic acid method (Pierce, Rockford, Ill., USA) according to the manufacturer's protocol. Proteins were resolved by 8, 10 or 12% SDS-PAGE and transferred to a nitrocellulose membrane (GE Healthcare, Buckinghamshire, UK). The membrane was blocked 15 min with TBST (50 mM Tris, 160 mM NaCl, 0.05% v/v Tween 20, pH 7.4) containing 5% w/v dried skimmed milk (TBS™). Primary antibody was incubated overnight at 4° C. in TBS™. The membrane was intensively washed (TBST) and then the peroxydase-labeled anti-mouse IgG1 or IgG2a (CliniSciences, Nanterre, France) was added for 45 min. Proteins were visualized with the enhanced chemiluminescence substrate kit (ECL RevelBIOt®, Ozyme, Saint Quentin en Yvelines, France).

[2] = system: MDA-MB-453 (HER2 positive) breast tumor cell line; assay: Cell death by MTT assay, MDA-MB-453; assay type: cell-based, human; conditions: 24 hours, mean of two experiments
Experimental: (§2) The ER-positive breast tumor cell lines MCF-7 and T47-D and the HER2 positive breast tumor cell lines MDA-MB-453 and BT474 (also ER-positive) were incubated with the indicated concentration of each mentioned compound of formula (I) for 24 hours and then cell death was assessed using MTT assay.
(§3) For each cell line, the percentage of cell death (mean of four experiments for cell lines MCF-7 and T47-D, and two experiments for cell lines MDA-MB-453 and BT474) is given in view of the increasing concentration of each tested compound of the invention.
(§4) Cell viability was assessed using the 3-[4,5-dimethylthiazol-2-yl]-2,5-diphenyltetrazolium bromide (MTT) viability assay (1). In brief, cells (4×10^4 per well) were cultured for 20 h in flat-bottomed 96 well plates with various concentrations of the apoptosis inducer. Then 0.015 ml of MTT (5 mg/ml in PBS) was added to each well and incubated for 4 h at 37° C. Formazan salt precipitats were dissolved by adding 0.115 ml of isopropyl alcohol containing 1% formic acid (v/v), and the absorbance was measured at 570 nm.

AKT phosphorylation = assay: In cellulo IC50 of AKT phosphorylation in CEM cells (Western blot densitometry); assay type: cell-based; conditions: Homo sapiens, CCRF-CEM, 2 hours incubation, AKT phosphorylation vs whole AKT, read-out: In vivo IC50
Experimental: CEM cells were incubated for 2 hours with the indicated concentrations of each mentioned compound of formula (I). Cells were then lysed and 100 μg of protein was loaded per line in an SDS-PAGE. Bands from AKT phosphorylation and whole AKT observed by Western blot were scanned and quantified by densitometric analysis. Based on these values, an in cellulo IC50 (half maximal inhibitory concentration) was measured for each compound of formula (I).
as §1

[3] = system: T47-D (ER-positive) breast tumor cell line; assay: Cell death by MTT assay, T47-D; assay type: cell-based, human; conditions: 24 hours, mean of four experiments
Experimental: as §2, §3, §4

[4] = system: MCF-7 (ER-positive) breast tumor cell line; assay: Cell death by MTT assay, MCF-7; assay type: cell-based, human; conditions: 24 hours, mean of four experiments
Experimental: as §2, §3, §4

[5] = system: BT474 (ER-positive/HER2-positive) breast tumor cell line; assay: Cell death by MTT assay, BT474; assay type: cell-based, human; conditions: 24 hours, mean of two experiments
Experimental: as §2, §3, §4

| SMILES | inhibitory activity on PI3K/AKT (level of AKT phosphorylation) [1] | percentage of cell death ([2]; MDA-MB-453, 0.390625 μM) [%] | percentage of cell death ([2]; MDA-MB-453, 0.78125 μM) [%] | percentage of cell death ([2]; MDA-MB-453, 1.5625 μM) [%] | percentage of cell death ([2]; MDA-MB-453, 3.125 μM) [%] | percentage of cell death ([2]; MDA-MB-453, 6.25 μM) [%] | percentage of cell death ([2]; MDA-MB-453, 12.5 μM) [%] | percentage of cell death ([2]; MDA-MB-453, 25 μM) [%] | percentage of cell death ([2]; MDA-MB-453, 50 μM) [%] | IC50 (AKT phosphorylation) [µM] | percentage of cell death ([3]; 6.25 μM) [%] | percentage of cell death ([3]; 12.5 μM) [%] | percentage of cell death ([3]; 25 μM) [%] | percentage of cell death ([3]; 50 μM) [%] | percentage of cell death ([4]; MCF-7, 6.25 μM) [%] | percentage of cell death ([4]; MCF-7, 12.5 μM) [%] | percentage of cell death ([4]; MCF-7, 25 μM) [%] | percentage of cell death ([4]; MCF-7, 50 μM) [%] | other results |
| --- | --- | --- | --- | --- | --- | --- | --- | --- | --- | --- | --- | --- | --- | --- | --- | --- | --- | --- | --- |
| O=[N+]([O-])C1=Cc2cccc(Br)c2OC1c1ccc(Br)cc1 (stereo not shown) [Compound 18, 8-bromo-2-(4-bromo-phenyl)-3-nitro-2H-chromene] | very strong inhibitors | 3.17 | 3.17 | 0 | 0 | 45.963 | 81.73 | 93.72 | 100 | 1.5 | 0 | 0 | 23.71 | 78.28 |  |  |  |  |  |
| O=[N+]([O-])C1=Cc2cccc(Br)c2OC1c1ccc(Cl)cc1 (stereo not shown) [Compound 19, 8-bromo-2-(4-chloro-phenyl)-3-nitro-2H-chromene] | very strong inhibitors | 0 | 0 | 0 | 24.69 | 53.93 | 91.89 | 98.05 | 101.13 | > 10 |  |  |  |  | 0 | 25.75 | 52.14 | 84.65 |  |
| O=[N+]([O-])C1Cc2cc(Br)ccc2OC1c1ccc(F)cc1 (stereo not shown) [Compound 7, 6-bromo-2-(4-fluorophenyl)-3-nitro-3,4-dihydro-2H-chromene] |  | 1.13 | 0 | 13.84 | 52.93 | 65.61 | 97.05 | 102.46 | 100.25 |  | 34.43 | 85.1 | 92.07 | 88.3 | 10.88 | 38.7 | 79.7 | 95.55 | percentage of cell death ([5]; BT474, 6.25 μM): 44.85%; percentage of cell death ([5]; BT474, 12.5 μM): 55.3%; percentage of cell death ([5]; BT474, 25 μM): 91.87%; percentage of cell death ([5]; BT474, 50 μM): 96.07% |
| CCOc1cccc2c1OC(c1ccc(Br)cc1)C([N+](=O)[O-])=C2 (stereo not shown) [Compound 13, 2-(4-bromo-phenyl)-8-ethoxy-3-nitro-2H-chromene] | very strong inhibitors |  |  |  |  |  |  |  |  | 8 |  |  |  |  |  |  |  |  |  |
| CCOc1cccc2c1OC(c1ccc(Cl)cc1)C([N+](=O)[O-])=C2 (stereo not shown) [Compound 14, 2-(4-chloro-phenyl)-8-ethoxy-3-nitro-2H-chromene] | very strong inhibitors |  |  |  |  |  |  |  |  | 10 |  |  |  |  |  |  |  |  |  |

— US9656984B2, “PI3K/AKT/mTOR inhibitors and pharmaceutical uses thereof” (UNIVERSITE DE RENNES 1, priority 2013, dated 2017)
